Reference: patent publication US6943192B2, “Treatment regimen for administration of phenylacetylglutamine, phenylacetylisoglutamine, and/or phenylacetate” (priority 1998, dated 2005)

Columns and labels:
[1] = system: KIM-1; conditions: cited from earlier work
[2] = cited from earlier work
[3] = orally administered to rats; cited from earlier work
[4] = peak plasma level after oral administration to rats; type: in vivo; conditions: orally administered to rats
Procedure: First, Burzynski et al. (Drugs Exptl. Clin. Res. 12 Suppl. 1, 11-16 (1986)) reported complete colony reduction of HBL-100 and Ki No. 1 tumor cell lines with 5.0 mg/mL of either phenylacetic acid or antineoplaston AS2-1. […] Under typical administration regimes of antineoplaston AS2-1, the peak plasma levels of phenylacetic acid are approximately […], roughly […] less than the cytostatic concentration observed in tissue culture experiments.

[5] = system: KYN-1; conditions: cited from earlier work
[6] = cited from earlier work; remark: listed apart in the source
[7] = system: human breast cancer cell line MDA-MB-231; conditions: cited from earlier work
[8] = system: cancer; conditions: clinical trials; cited from earlier work
[9] = system: human colon adenocarcinoma; conditions: cited from earlier work
[10] = system: S180 cells; conditions: mice implanted with S180 cells; cited from earlier work
[11] = system: rat Nb2 lymphoma; conditions: cited from earlier work
[12] = system: KMCH-1; conditions: cited from earlier work
[13] = system: K562 erythroleukemia cells; conditions: cited from earlier work
[14] = system: medulloblastoma; conditions: cited from earlier work
[15] = system: murine fibrosarcoma V7T; conditions: cited from earlier work
[16] = system: chronic lymphocytic leukemia; conditions: cited from earlier work
[17] = system: human promyelocytic leukemia HL-60; conditions: cited from earlier work
[18] = system: malignant melanoma; conditions: cited from earlier work
[19] = system: neuroblastoma; conditions: cited from earlier work
[20] = system: Ki-1; conditions: cited from earlier work
[21] = system: astrocytoma; conditions: cited from earlier work
[22] = system: breast carcinoma cell line HBL-100; conditions: cited from earlier work
[23] = system: premalignant mesenchymal C3H 10T1/2 cells; conditions: cited from earlier work
[24] = system: ovarian carcinoma; conditions: cited from earlier work
[25] = system: hormonally refractory prostate adenocarcinoma PC3; conditions: cited from earlier work

Q: What does the source list for O=C1CCC(NC(=O)Cc2ccccc2)C(=O)N1 (centres unmarked) [3-phenylacetylamino-2,6-piperidinedione]?
A: inhibition of the growth curve [1]: Dose-dependent inhibition; clearance in vivo [2]: rapidly cleared in vivo; peak plasma level [3]: approximately 0.2 mg/mL; peak plasma level, fold less than the cytostatic concentration in tissue culture [4]: roughly 10 fold; inhibition of the growth curve [5]: Dose-dependent inhibition; solubility in water [6]: poorly soluble in water; concentration at which cytostasis was observed ([7]; MDA-MB-231): 2.0 mg/mL; effect on cultured MDA-MB-231 [7]: cytostatic effect; efficacy in treating cancer [8]: effective in treating cancer; inhibition of the growth curve [9]: Dose-dependent inhibition; cAMP levels in the livers and tumors of treated mice relative to control mice [10]: significantly elevated; inhibition of the growth curve [11]: Dose-dependent inhibition; inhibition of the growth curve [12]: Dose-dependent inhibition

Q: Which hemoglobin production [13] does the source give for O=C(O)Cc1ccccc1 [phenylacetic acid] here?
A: enhanced hemoglobin production

Q: What about the “terminal differentiation or phenotypic reversion” value [14] of the same compound?
A: promoted terminal differentiation or phenotypic reversion

Q: And the “terminal differentiation or phenotypic reversion” value [15]?
A: promoted terminal differentiation or phenotypic reversion

Q: And the “terminal differentiation or phenotypic reversion” value [16]?
A: promoted terminal differentiation or phenotypic reversion

Q: What about the “terminal differentiation or phenotypic reversion” value [17] of the same compound?
A: promoted terminal differentiation or phenotypic reversion

Q: And the “terminal differentiation or phenotypic reversion” value [18]?
A: promoted terminal differentiation or phenotypic reversion

Q: What about the “terminal differentiation or phenotypic reversion” value [19] of the same compound?
A: promoted terminal differentiation or phenotypic reversion

Q: What about the “concentration giving complete colony reduction” value ([20]; Ki No. 1) of the same compound?
A: 5.0 mg/mL

Q: And the growth inhibition ([20]; Ki-1)?
A: dose-dependent growth inhibition

Q: And the “terminal differentiation or phenotypic reversion” value [21]?
A: promoted terminal differentiation or phenotypic reversion

Q: What about the “concentration giving complete colony reduction” value [22] of the same compound?
A: 5.0 mg/mL

Q: And the growth inhibition [22]?
A: dose-dependent growth inhibition

Q: What about the adipocyte conversion [23] of the same compound?
A: caused adipocyte conversion

Q: What about the “tumor progression in premalignant cells” value ([23]; in distinction to 5-aza-2-deoxycitidine) of the same compound?
A: did not cause tumor progression

Q: And the “terminal differentiation or phenotypic reversion” value [24]?
A: promoted terminal differentiation or phenotypic reversion

Q: What about the “terminal differentiation or phenotypic reversion” value [25] of the same compound?
A: promoted terminal differentiation or phenotypic reversion
